{
  "source": "patent US20260008817A1",
  "about": "“CYCLIC PEPTIDE OR SALT THEREOF, AND USES THEREOF” (FUJIFILM Corporation, priority 2023, published 2026)",
  "key": {"[1]": {"test_system": "hMSC-Human Mesenchymal Stem Cells", "test": "Mesenchymal stem cell (MSC) proliferation-promoting effect", "format": "cell-based", "settings": "0.001 to 3 nmol/L, compared with bFGF at the same molar ratio; FIG. 3", "experimental": "The mesenchymal stem cell (MSC) proliferation-promoting effect of the cyclic peptide complex was evaluated.\nThe MSC was activated and subcultured according to the recommended protocol of FUJIFILM Irvine Scientific, Inc. using hMSC-Human Mesenchymal Stem Cells (Lonza, PT-2501) and PRIME-XV MSC Expansion XSFM (FUJIFILM Irvine Scientific, Inc., 91149) as a culture medium. MSCs that had been subcultured 1 to 4 times were used for the evaluation.\nThe evaluation of the proliferation-promoting effect of MSC was performed by the following method. First, a culture medium (hereinafter, referred to as a custom culture medium) in which bFGF was removed from PRIME-XV MSC Expansion XSFM (FUJIFILM Irvine Scientific, Inc., 91149) was prepared. Next, Prime-XV Human Fibronectin (FUJIFILM Irvine Scientific, Inc., 31002) was dissolved in PBS (Fujifilm Wako Pure Chemical Corporation, 164-23551), 2 μg/cm^2 of the solution was added to a 96-well plate used for evaluation, and the 96-well plate was allowed to stand at room temperature for 3 hours to coat the 96-well plate with fibronectin. […] The number of viable cells was calculated from the imaging data and normalized by setting the number of viable cells in the well to which 1 nmol/L bFGF was added to 100, and setting the number of viable cells in the negative control well to 0."}, "[2]": {"test_system": "hMSC-Human Mesenchymal Stem Cells", "test": "Effect of maintaining MSC undifferentiated potency (gene expression)", "format": "cell-based", "settings": "cyclic peptide complex 10 nmol/L, bFGF 1 nmol/L, normalized to 1 nmol/L bFGF = 1, FIG. 4", "experimental": "The effect of maintaining mesenchymal stem cell (MSC) undifferentiated potency of the cyclic peptide complex was evaluated.\nMSC was prepared in the same manner as in Example 7.\nThe evaluation of the effect of maintaining the MSC undifferentiated potency was performed by the following method. First, a culture medium (hereinafter, referred to as a custom culture medium) in which bFGF was removed from PRIME-XV MSC Expansion XSFM (FUJIFILM Irvine Scientific, Inc., 91149) was prepared. Next, Prime-XV Human Fibronectin (FUJIFILM Irvine Scientific, Inc., 31002) was dissolved in PBS (Fujifilm Wako Pure Chemical Corporation, 164-23551), 2 μg/cm^2 of the solution was added to a 12-well plate used for proliferation, and the 12-well plate was allowed to stand at room temperature for 3 hours to coat the 12-well plate with fibronectin. Thereafter, the MSCs subjected to the subculture were peeled using Tryple Express (Thermo, 12604-013), washed once with a custom culture medium, suspended in a custom culture medium in which a cyclic peptide complex or bFGF (R&D Systems, 3718-GMP) was diluted to final concentrations of 10 nmol/L and 1 nmol/L, and seeded on a 12-well plate coated with fibronectin. In this case, conditions in which the cyclic peptide complex and bFGF were not added as a negative control were prepared. After culturing at 37° C. (5% CO2) for 2 nights, the culture medium was replaced by removing the supernatant of the culture medium and adding the same amount of a culture medium prepared to have the same composition as the removed culture medium. After further culturing at 37° C. (5% CO2) for 2 nights, RNA was extracted using an RNeasy Plus Mini Kit (Qiagen, 74136) according to the manufacturer's protocol. […] The expression level of each gene was normalized by setting the expression level of the well to which 1 nmol/L bFGF was added to 1."}, "Bovine myoblasts": {"test_system": "Bovine myoblasts", "test": "Bovine myoblast proliferation-promoting effect", "format": "cell-based, Japanese Black cattle", "settings": "0.03 to 10 nmol/L complex versus 30 ng/mL bFGF, 4 days; FIG. 5", "experimental": "The bovine cells (myoblasts) proliferation-promoting effect of the cyclic peptide complex was evaluated.\nBovine myoblasts were separated from bovine muscle tissue by the following method. First, muscle tissue of Japanese Black cattle was finely chopped in HBSS(−) (phenol red-free) (FUJIFILM Wako Pure Chemical Corporation, 085-09355), and then pronase from Streptomyces griseus (Sigma-Aldrich, 10165921001) was added thereto to a final concentration of 1 mg/mL, and the mixture was allowed to stand at 37° C. for 1 hour. After allowing to stand, HBSS containing 10% FBS was added thereto, and the cells were acquired by centrifugation. The acquired cells were suspended in D-MEM (high glucose) (containing L-glutamine and phenol red) (FUJIFILM Wako Pure Chemical Corporation, 044-29765) containing 10% final concentration of bovine serum and 30 ng/mL bFGF. Suspended cells were cultured in a culture flask coated with an iMatrix-511 solution (FUJIFILM Wako Pure Chemical Corporation, 381-07363) at 0.55 μg/cm^2. […]\nThe evaluation of the proliferation-promoting effect on bovine myoblasts was performed by the following method. […] The number of viable cells was calculated from the imaging data and normalized by setting the number of viable cells in the well to which 30 ng/mL bFGF was added to 100, and setting the number of viable cells in the negative control well to 0."}},
  "note": "Non-standard residues stand in square brackets, D forms with d. No end group written: not given here. hCys = N[C@@H](CCS)C(=O)O; Orn = NCCC[C@H](N)C(=O)O",
  "data": [
    {"substance": "F-(Orn(acetyl))-VYTFDAHAHSLDAALN-(Hcy)-I (F[Orn]VYTFDAHAHSLDAALN[hCys]IF[Orn]VYTFDAHAHSLDAALN[hCys]I-NH2; thioether (positions not given here); not fully specified (residues 2, 22, bridges); also: dimer of two 20-mers crosslinked via Bis-NHS-PEG13 between side-chain amino groups, C-terminal amide on each monomer) [SEQ ID NO: 346, cyclic peptide complex; C-terminal amidation, amide crosslinking between side chain amino groups of N via Bis-NHS-PEG13]", "values": [
      {"measurement": "MSC proliferation-promoting effect", "setting": "[1]", "result": "same degree of MSC proliferation-promoting effect as bFGF"},
      {"measurement": "expression level of Sox2", "setting": "[2]", "result": "same degree of a gene expression level as bFGF"},
      {"measurement": "proliferation-promoting effect on bovine myoblasts", "setting": "Bovine myoblasts", "result": "comparable to or higher than that of bFGF"}
    ]}
  ]
}
